Data taken from ChEMBL document CHEMBL1152135, “New synthesis and evaluation of enantiomers of 7-methyl-2-exo-(3'-iodo-5'-pyridinyl)-7-azabicyclo[2.2.1]heptane as stereoselective ligands for PET imaging of nicotinic acetylcholine receptors” (Bioorg Med Chem Lett, 2008).
pKi: −log10 of the molar value.

test: Displacement of [3H]epibatine from nAChR in rat cortical membrane; type: cell membranes

Compound	pKi
Ic1cncc([C@H]2C[C@H]3CC[C@H]2N3)c1 (stereo in doubt; (+)-4)	10.32
CN1[C@@H]2CC[C@@H]1[C@@H](c1cncc(I)c1)C2 (stereo in doubt; (+)-5)	10.26
Ic1cncc([C@H]2C[C@H]3CC[C@H]2N3)c1 (stereo in doubt; (-)-4)	10.35
CN1[C@@H]2CC[C@@H]1[C@@H](c1cncc(I)c1)C2 (stereo in doubt; (-)-5)	8.77
Clc1ccc(C2CC3CCC2N3)cn1 (stereo not given) [EPIBATIDINE]	10.34
